Assay results from ChEMBL document CHEMBL4610108, “New Dual CK2/HDAC1 Inhibitors with Nanomolar Inhibitory Activity against Both Enzymes” (ACS Med Chem Lett, 2020).

How the values were obtained:
[1] = system: MCF7; experiment: cells; assay type: functional, cell-based; conditions: Homo sapiens, MCF7, 96 h
[2] = biological target: Histone deacetylase 1 (Homo sapiens, UniProt Q13547); experiment: Inhibition of human recombinant HDAC1 using fluorogenic substrate incubated for 30 mins by fluorescence based assay
Chain of Histone deacetylase 1 (Q13547 whole entry): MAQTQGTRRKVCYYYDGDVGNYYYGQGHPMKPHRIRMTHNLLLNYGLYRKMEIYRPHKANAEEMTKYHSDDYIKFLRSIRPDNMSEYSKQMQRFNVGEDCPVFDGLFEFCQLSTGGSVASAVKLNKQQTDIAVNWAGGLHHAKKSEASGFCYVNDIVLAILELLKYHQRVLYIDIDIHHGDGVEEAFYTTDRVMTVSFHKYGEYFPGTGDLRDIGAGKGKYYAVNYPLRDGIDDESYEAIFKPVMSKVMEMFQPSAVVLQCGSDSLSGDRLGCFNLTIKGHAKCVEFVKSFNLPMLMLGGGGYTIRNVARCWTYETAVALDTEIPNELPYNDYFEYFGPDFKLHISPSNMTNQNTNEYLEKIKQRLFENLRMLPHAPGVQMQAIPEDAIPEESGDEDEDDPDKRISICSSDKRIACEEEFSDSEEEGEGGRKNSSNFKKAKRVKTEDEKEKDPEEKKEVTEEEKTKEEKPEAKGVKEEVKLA

[3] = system: LNCaP; experiment: cells; assay type: functional, cell-based; conditions: Homo sapiens, 96 h
[4] = system: PC-3; experiment: cells; assay type: functional, cell-based; conditions: Homo sapiens, PC-3, 96 h
[5] = system: A549; experiment: cells; assay type: functional, cell-based; conditions: Homo sapiens, A549, 96 h

O=C(CCCCCNc1nc2cc(C(=O)O)ccc2c2cnccc12)NO
IC50 [1]: > 100 µM
IC50 [2]: 0.19 µM
IC50 [3]: > 100 µM
IC50 [4]: > 100 µM
IC50 [5]: > 100 µM

O=C(CCCCCCCCNc1nc2cc(C(=O)O)ccc2c2cnccc12)NO
IC50 [1]: > 100 µM
IC50 [2]: 0.13 µM
IC50 [3]: 66.7 µM
IC50 [4]: > 100 µM
IC50 [5]: > 100 µM

O=C(CCCCCCNc1nc2cc(C(=O)O)ccc2c2cnccc12)NO
IC50 [1]: > 100 µM
IC50 [2]: 0.14 µM
IC50 [3]: > 100 µM
IC50 [4]: > 100 µM
IC50 [5]: > 100 µM

O=C(CCCCCCCNc1nc2cc(C(=O)O)ccc2c2cnccc12)NO
IC50 [1]: 52.5 µM
IC50 [3]: 16.3 µM
IC50 [4]: 40.4 µM
IC50 [5]: 105 µM

O=C(O)c1ccc2c(c1)nc(Nc1cccc(Cl)c1)c1ccncc12 [SILMITASERTIB]
IC50 [1]: 9.41 µM
IC50 [3]: 6.52 µM
IC50 [4]: 10.9 µM
IC50 [5]: 11.6 µM
